Results reported in article PMC6940912, “Novel Drug-Like Somatostatin Receptor 4 Agonists are Potential Analgesics for Neuropathic Pain” (International Journal of Molecular Sciences, 2019).

Columns and labels:
Male NMRI mice [1] = assay: RTX-induced acute neurogenic inflammatory thermal allodynia and mechanical hyperalgesia; assay type: in vivo, mouse; details: oral pretreatment 1 h before intraplantar RTX, printed dose 500 µg/kg; for Effect on acute neurogenic inflammatory heat hyperalgesia: at 10 and 30 min; for Effect on RTX-induced mechanical hyperalgesia: at 30 min
Protocol: The investigated compounds (500 µg/kg p.o.) or the vehicle were administered orally 1 h before the induction of the acute neurogenic inflammation by intraplantar RTX (Sigma, St. Louis, MO, USA) injection (20 µL, 0.1 µg/mL) into the right hindpaw. RTX evokes an acute neurogenic inflammatory reaction with the development of a rapid thermal allodynia, mainly due to peripheral sensitization mechanisms, and a later developing mechanical hyperalgesia due also to central sensitization. The nociceptive heat threshold was determined before (control) and 10, 20 and 30 min after RTX administration with an increasing-temperature hot plate (IITC Life Science, Woodland Hills, CA, USA). […] The mechanonociceptive threshold was measured with an electronic von Frey device (dynamic plantar aesthesiometer (DPA), Ugo Basile, Comerio, Italy) prior to RTX injection and 30, 60 and 90 min afterwards. The measurement at 30 min was performed immediately after the last heat threshold measurement. The experiment consisted of two separate series on consecutive days and the number of animals in the control group was six per day. Therefore, the control group contained 12 mice, and six and five mice were used in the C1- and C2-treated groups, respectively.
(§1) In the sst4 receptor activation assay, all the compounds were dissolved in dimethyl sulfoxide (DMSO) (Szkarabeusz Ltd., Pécs, Hungary). The concentration of the stock solutions was 10 mM and was diluted with distilled water to reach the final concentrations. For the in vivo experiments, 1 mg of the compounds was rubbed dry in a braying mortar, suspended thoroughly in 1 mL 1.25% methylcellulose (MC) (Pharmacy of University of Pécs, Pécs, Hungary) solution and then dissolved in sterile bidistilled water to get a 1000 µg/mL stock solution freshly every experimental day. Most microsuspensions looked opalescent; they were shaken properly, sonicated, and further diluted with 1.25% MC to obtain the 25 µg/mL solution for oral administrations (0.2 mL/10 g body weight for the 500 µg/kg dose). The solutions were shaken and sonicated again directly before use. The vehicle was always 1.25% MC dissolved in sterile bidistilled water.
Male NMRI mice (8–12 weeks old) bred in the Laboratory Animal House of the Department of Pharmacology and Pharmacotherapy of the University of Pecs were kept in standard plastic cages at 24–25 °C, under a 12–12 h light–dark cycle and provided with standard rodent chow and water ad libitum. […]

D1 = molecular target: T1, D1 (Homo sapiens, UniProt P21728); assay: Selectivity profile (Eurofins Cerep), cellular agonist/antagonist effect; assay type: cell-based; details: 1 µM
T1 construct: Eurofins Cerep (contract assay)
Protocol: (§2) The evaluation was performed by Eurofins Cerep (France). Compound binding was calculated as a % inhibition of the binding of a radioactively labeled ligand specific for each target. Enzyme inhibition effect was calculated as a % inhibition of control enzyme activity. Cellular agonist effect was calculated as a % of control response to a known reference agonist for each target, and cellular antagonist effect was calculated as a % inhibition of control reference agonist response for each target. In each experiment the respective reference compound was tested concurrently with Compound 1 [71, 72, 73, 74, 75, 76, 77, 78]. See in Supplementary Materials.

D2S = molecular target: T2, D2S (Homo sapiens, UniProt P14416); assay: as above; assay type: cell-based; details: 1 µM
T2 construct: Eurofins Cerep (contract assay)
Protocol: as §2

CB1 = molecular target: T3, CB1 (Homo sapiens, UniProt P21554); assay: as above; assay type: cell-based; details: 1 µM
T3 construct: Eurofins Cerep (contract assay)
Protocol: as §2

Delta (DOP) = molecular target: T4, Delta (DOP) (Homo sapiens, UniProt P41143); assay: as above; assay type: cell-based; details: 1 µM
T4 construct: Eurofins Cerep (contract assay)
Protocol: as §2

Kappa (KOP) = molecular target: T5, Kappa (KOP) (Homo sapiens, UniProt P41145); assay: as above; assay type: cell-based; details: 1 µM
T5 construct: Eurofins Cerep (contract assay)
Protocol: as §2

Mu (MOP) = molecular target: T6, Mu (MOP) (Homo sapiens, UniProt P35372); assay: as above; assay type: cell-based; details: 1 µM
T6 construct: Eurofins Cerep (contract assay)
Protocol: as §2

CB2 = molecular target: T7, CB2 (Homo sapiens, UniProt P34972); assay: as above; assay type: cell-based; details: 1 µM
T7 construct: Eurofins Cerep (contract assay)
Protocol: as §2

Male NMRI mice [2] = assay: Partial sciatic nerve ligation-induced chronic traumatic neuropathic mechanical hyperalgesia; assay type: in vivo, mouse; details: for Mechanonociceptive threshold of operated limb, 1 h after treatment / Neuropathic mechanical hyperalgesia, 1 h after treatment / Mechanonociceptive threshold of operated limb, before treatment / Neuropathic mechanical hyperalgesia, before treatment: day 7 after sciatic nerve ligation, n = 8; for Mechanonociceptive threshold of operated limb, 1 h after treatment / Neuropathic mechanical hyperalgesia, 1 h after treatment: 500 µg/kg oral, 1 h later; for Mechanonociceptive threshold of operated limb, before treatment / Neuropathic mechanical hyperalgesia, before treatment: pretreatment self-control; for Anti-hyperalgesic effect on neuropathic mechanical hyperalgesia: traumatic nerve injury, single oral 500 µg/kg
Protocol: After conditioning and two control mechanonociceptive measurements on 2 consecutive days, mice were anaesthetized by the combination of ketamine (100 mg/kg, i.p.) and xylazine (10 mg/kg, i.p.). Traumatic mononeuropathy was achieved by one-third to one-half part ligation of the right sciatic nerve. Significant decrease in the mechanical threshold develops 7 days after operation. The mechanonociceptive threshold of the plantar surface of the hindpaws was measured by DPA on the 7th postoperative day. The paw withdrawal threshold was obtained in grams (the maximal value was 10 g; ramp time of 4 s). The compounds (500 µg/kg) or the vehicle were administered orally on day 7, one hour before the repeated measurement. The experiment consisted of separate series on 3 consecutive days, and there were 2–3 vehicle-treated control animals in every series. Therefore, each group contained 8 mice.
as §1
Male NMRI mice (8–12 weeks old) bred in the Laboratory Animal House of the Department of Pharmacology and Pharmacotherapy of the University of Pecs were kept in standard plastic cages at 24–25 °C, under a 12–12 h light–dark cycle and provided with standard rodent chow and water ad libitum. All experimental procedures complied with the recommendations of the 1998/XXVIII Act of the Hungarian Parliament on Animal Protection and Consideration Decree of Scientific Procedures of Animal Experiments (63/2010) and were approved by the Ethics Committee on Animal Research of Pecs University according to the Ethical Codex of Animal Experiments; license was given (license No. BA1/35/55-50/2017). We made all efforts to minimize the number and suffering of the animals used in this study.

MAOA = molecular target: T8, MAOA (Homo sapiens, UniProt P21397); assay: Selectivity profile (Eurofins Cerep), enzyme inhibition; assay type: biochemical; details: % inhibition of control enzyme activity, read-out: Enzymatic Activity (%)
T8 construct: Eurofins Cerep (contract assay)
T8 sequence (P21397 1-527): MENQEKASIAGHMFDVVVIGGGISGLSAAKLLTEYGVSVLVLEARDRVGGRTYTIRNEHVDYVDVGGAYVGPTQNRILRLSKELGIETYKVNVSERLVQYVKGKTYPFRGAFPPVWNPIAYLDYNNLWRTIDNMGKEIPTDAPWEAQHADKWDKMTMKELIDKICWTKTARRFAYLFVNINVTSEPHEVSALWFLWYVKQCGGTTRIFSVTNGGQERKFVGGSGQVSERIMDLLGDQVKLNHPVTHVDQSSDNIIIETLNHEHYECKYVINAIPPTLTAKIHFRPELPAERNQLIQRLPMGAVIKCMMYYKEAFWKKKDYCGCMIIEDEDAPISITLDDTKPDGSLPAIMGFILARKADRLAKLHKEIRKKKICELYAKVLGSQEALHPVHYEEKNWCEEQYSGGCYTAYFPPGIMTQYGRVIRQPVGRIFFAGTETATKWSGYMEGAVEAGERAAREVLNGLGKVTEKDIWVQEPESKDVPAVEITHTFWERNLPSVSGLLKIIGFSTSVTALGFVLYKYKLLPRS
Protocol: as §2

PDE3A = molecular target: T9, PDE3A (Homo sapiens, UniProt Q14432); assay: as above; assay type: biochemical; details: % inhibition of control enzyme activity, read-out: Enzymatic Activity (%)
T9 construct: Eurofins Cerep (contract assay)
Protocol: as §2

PDE4D2 = molecular target: T10, PDE4D2 (Homo sapiens, UniProt Q08499); assay: as above; assay type: biochemical; details: % inhibition of control enzyme activity, read-out: Enzymatic Activity (%)
T10 construct: Eurofins Cerep (contract assay)
Protocol: as §2

COX-2 = molecular target: T11, COX-2 (Homo sapiens, UniProt P35354); assay: as above; assay type: biochemical; details: % inhibition of control enzyme activity, read-out: Enzymatic Activity (%)
T11 construct: Eurofins Cerep (contract assay)
T11 sequence (P35354 18-604): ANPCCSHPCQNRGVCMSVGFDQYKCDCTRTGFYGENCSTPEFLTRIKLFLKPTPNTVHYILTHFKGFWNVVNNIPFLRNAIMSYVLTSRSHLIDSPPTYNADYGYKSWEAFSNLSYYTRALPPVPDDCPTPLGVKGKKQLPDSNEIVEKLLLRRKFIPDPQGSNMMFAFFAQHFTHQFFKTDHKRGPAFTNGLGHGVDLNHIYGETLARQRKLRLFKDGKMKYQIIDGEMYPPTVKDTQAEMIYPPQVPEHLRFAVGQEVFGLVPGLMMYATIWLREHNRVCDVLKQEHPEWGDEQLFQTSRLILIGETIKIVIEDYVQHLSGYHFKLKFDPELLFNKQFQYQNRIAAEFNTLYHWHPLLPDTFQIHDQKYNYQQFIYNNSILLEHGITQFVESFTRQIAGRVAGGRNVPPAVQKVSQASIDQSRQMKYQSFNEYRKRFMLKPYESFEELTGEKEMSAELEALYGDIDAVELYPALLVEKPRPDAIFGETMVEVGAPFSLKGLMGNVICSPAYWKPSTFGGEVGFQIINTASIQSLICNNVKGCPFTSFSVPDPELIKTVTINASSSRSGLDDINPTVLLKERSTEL
Protocol: as §2

K+ channel hERG = molecular target: T12, K+ channel hERG (Homo sapiens, UniProt Q12809); assay: Selectivity profile (Eurofins Cerep), radioligand binding; details: 1 µM, % inhibition of binding of radiolabeled ligand
T12 construct: Eurofins Cerep (contract assay)
Protocol: as §2

Ca2+ channel = assay: as above; details: 1 µM, % inhibition of binding of radiolabeled ligand
Protocol: as §2

sst4 receptor = molecular target: T13, sst4 receptor (Homo sapiens, UniProt P31391); assay: sst4 receptor-linked G-protein activation, [35S]GTPγS binding assay on membranes of sst4-expressing CHO cells; assay type: biochemical; details: for EC50: 1 nM to 10 µM, n = 3; for Emax: [35S]GTPγS binding, mean ± SEM, n = 3, read-out: Maximal activation over the basal activity of the receptor (efficacy)
T13 construct: expressed in transfected cells; host or cells: CHO cells
Protocol: Membrane fractions were prepared from CHO cells, which express the sst4 receptor, in Tris–ethylene glycol-bis(2-aminoethyl)tetraacetic acid (Tris–EGTA) buffer (50 mM Tris–HCl (Sigma, St. Louis, MO, USA), 1 mM EGTA (Sigma, St. Louis, MO, USA), 3 mM MgCl2 (Sigma, St. Louis, MO, USA), 100 mM NaCl (Sigma, St. Louis, MO, USA), pH 7.4, 10 μg of protein/sample). The fractions were incubated in the buffer containing 0.05 nM guanosine triphosphate (GTP) (BioChemica International Inc., Melbourne, Florida, USA), labeled on the gamma phosphate group with ^35S ([^35S]GTPγS) (Isotop Institute, Budapest, Hungary) and increasing concentrations (1 nM to 10 µM) of C1, C2, C3 and C4 compounds for 60 min at 30 °C, in the presence of 30 μM guanosine diphosphate (GDP) (Sigma, St. Louis, MO, USA). We determined the nonspecific binding in the presence of 10 μM unlabeled GTPγS and total binding in the absence of test compounds. Samples were filtrated through Whatman GF/B glass fiber filters using 48-well Slot Blot Manifold from Cleaver Scientific (Cleaver Scientific Ltd., Rugby, Warwickshire, United Kingdom). Filters were washed with ice-cold 50 mM Tris–HCl buffer (pH 7.4) and radioactivity was measured in a β-counter (PerkinElmer Inc., Waltham, MA, USA). The test-compound-induced G-protein activation was given as percentage over the specific [^35S]GTPγS binding detected in the absence of agonists.
as §1

[3] = % inhibition of control reference agonist response
[4] = % of control response to reference agonist

T13 sequence (P31391 whole entry): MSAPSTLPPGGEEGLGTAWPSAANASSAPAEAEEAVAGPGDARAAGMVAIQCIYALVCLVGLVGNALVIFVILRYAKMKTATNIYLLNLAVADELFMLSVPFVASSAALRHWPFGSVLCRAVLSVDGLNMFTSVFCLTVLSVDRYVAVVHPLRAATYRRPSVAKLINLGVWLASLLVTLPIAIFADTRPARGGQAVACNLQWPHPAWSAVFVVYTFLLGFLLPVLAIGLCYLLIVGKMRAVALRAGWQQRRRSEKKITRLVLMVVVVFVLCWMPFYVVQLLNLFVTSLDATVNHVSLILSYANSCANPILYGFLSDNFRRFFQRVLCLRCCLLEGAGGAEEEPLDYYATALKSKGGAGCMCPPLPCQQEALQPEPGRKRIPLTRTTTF
T4 sequence (P41143 whole entry): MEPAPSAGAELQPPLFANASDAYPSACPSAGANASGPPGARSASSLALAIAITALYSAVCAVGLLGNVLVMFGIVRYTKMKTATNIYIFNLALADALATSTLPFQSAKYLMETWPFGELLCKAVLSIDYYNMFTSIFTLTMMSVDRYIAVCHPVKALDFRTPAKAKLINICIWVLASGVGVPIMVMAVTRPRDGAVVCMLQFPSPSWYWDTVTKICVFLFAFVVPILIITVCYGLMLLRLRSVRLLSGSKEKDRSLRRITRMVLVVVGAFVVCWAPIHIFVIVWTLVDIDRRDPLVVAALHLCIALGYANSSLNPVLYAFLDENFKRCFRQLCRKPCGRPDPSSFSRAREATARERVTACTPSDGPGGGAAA
T3 sequence (P21554 whole entry): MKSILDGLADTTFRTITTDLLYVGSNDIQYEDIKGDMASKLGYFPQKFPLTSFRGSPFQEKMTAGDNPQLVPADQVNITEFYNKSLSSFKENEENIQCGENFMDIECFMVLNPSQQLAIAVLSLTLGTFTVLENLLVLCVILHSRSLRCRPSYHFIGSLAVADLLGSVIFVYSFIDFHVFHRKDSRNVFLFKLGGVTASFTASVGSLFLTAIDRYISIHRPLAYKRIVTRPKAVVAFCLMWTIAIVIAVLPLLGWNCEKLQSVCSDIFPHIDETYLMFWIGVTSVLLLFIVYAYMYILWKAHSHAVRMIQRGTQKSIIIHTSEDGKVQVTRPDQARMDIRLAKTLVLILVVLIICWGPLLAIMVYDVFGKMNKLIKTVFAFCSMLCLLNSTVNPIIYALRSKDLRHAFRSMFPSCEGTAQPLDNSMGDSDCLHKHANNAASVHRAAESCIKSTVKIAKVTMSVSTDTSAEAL
T5 sequence (P41145 whole entry): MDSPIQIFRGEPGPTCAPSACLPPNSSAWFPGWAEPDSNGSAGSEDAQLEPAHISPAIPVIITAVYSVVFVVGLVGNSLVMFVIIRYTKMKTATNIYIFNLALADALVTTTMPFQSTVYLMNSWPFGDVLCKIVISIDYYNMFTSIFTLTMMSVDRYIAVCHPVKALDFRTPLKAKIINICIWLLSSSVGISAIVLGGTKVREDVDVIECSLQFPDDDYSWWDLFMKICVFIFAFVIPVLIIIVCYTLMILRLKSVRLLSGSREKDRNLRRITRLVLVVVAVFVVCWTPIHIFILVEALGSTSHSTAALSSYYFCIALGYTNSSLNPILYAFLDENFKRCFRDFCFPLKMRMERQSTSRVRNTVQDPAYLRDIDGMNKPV
T7 sequence (P34972 whole entry): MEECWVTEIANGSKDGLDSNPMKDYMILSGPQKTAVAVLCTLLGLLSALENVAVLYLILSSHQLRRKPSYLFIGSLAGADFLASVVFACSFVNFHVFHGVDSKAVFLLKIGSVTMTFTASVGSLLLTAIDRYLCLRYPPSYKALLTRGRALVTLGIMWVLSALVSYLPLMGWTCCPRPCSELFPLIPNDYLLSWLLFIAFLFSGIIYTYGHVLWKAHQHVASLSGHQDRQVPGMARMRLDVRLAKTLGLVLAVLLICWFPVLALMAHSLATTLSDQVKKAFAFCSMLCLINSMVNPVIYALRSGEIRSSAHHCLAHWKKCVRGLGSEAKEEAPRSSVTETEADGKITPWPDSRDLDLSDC
T2 sequence (P14416 1-414 isoform P14416-2): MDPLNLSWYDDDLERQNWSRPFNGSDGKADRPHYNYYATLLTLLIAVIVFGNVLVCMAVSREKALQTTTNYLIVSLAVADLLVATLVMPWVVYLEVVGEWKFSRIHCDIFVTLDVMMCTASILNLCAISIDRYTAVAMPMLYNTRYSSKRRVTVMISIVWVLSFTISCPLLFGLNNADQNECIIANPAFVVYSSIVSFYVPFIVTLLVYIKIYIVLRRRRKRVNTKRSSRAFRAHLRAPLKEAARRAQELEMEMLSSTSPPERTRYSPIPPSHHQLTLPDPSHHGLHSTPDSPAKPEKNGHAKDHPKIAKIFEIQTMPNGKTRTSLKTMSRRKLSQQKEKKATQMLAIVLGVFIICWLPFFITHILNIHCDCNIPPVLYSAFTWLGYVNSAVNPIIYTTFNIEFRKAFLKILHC
T1 sequence (P21728 whole entry): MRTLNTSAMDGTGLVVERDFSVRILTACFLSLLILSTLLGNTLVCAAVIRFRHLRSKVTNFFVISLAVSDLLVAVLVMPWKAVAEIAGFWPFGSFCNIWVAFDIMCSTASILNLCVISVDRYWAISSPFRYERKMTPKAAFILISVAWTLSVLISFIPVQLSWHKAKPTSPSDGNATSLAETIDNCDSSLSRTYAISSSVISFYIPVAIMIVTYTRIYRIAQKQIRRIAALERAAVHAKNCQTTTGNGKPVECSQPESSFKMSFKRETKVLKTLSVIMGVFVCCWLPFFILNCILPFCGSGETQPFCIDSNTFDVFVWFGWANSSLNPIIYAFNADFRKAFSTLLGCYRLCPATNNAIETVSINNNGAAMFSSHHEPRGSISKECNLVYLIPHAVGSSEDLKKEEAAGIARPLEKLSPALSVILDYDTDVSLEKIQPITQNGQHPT
T6 sequence (P35372 whole entry): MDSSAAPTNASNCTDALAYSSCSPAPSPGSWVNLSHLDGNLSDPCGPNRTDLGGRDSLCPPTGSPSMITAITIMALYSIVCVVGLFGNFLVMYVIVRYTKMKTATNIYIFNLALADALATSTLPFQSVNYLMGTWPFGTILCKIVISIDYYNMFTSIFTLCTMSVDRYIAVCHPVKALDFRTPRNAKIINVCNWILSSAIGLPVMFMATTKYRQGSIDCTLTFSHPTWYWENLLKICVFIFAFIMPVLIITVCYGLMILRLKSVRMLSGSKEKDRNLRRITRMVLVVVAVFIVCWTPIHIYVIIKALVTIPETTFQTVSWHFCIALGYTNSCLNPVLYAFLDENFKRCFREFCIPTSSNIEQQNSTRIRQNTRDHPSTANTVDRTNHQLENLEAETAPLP
T12 sequence (Q12809 whole entry): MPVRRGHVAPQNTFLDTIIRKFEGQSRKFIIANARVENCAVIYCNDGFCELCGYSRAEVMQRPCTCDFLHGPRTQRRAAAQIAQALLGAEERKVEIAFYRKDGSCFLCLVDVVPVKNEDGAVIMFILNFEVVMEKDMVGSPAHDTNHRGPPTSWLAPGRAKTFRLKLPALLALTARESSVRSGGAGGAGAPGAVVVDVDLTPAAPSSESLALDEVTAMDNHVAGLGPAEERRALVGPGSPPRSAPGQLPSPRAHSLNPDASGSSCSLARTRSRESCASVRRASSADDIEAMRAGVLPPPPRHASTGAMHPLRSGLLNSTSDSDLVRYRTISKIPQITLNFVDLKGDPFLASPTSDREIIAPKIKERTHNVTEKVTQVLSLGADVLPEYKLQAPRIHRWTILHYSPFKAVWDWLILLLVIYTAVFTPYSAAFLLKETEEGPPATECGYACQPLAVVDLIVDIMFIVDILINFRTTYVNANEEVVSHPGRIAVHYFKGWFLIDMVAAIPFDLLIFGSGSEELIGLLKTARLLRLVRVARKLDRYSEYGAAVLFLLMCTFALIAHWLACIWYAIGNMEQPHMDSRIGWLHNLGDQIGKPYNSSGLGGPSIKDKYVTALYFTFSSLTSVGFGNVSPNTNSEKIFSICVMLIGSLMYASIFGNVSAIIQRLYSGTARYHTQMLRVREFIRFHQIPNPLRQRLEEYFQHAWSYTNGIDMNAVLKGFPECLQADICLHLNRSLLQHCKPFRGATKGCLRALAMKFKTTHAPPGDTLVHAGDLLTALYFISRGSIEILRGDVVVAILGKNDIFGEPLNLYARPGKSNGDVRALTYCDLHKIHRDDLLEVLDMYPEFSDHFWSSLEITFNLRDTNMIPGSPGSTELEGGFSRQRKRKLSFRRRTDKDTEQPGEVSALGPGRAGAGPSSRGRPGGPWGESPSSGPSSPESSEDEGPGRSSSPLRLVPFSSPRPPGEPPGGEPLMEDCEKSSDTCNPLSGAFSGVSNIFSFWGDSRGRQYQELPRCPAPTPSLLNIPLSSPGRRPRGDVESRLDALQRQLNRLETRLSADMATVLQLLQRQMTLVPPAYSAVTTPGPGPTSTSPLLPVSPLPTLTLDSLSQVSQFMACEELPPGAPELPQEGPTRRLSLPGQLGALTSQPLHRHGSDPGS
T10 sequence (Q08499 303-809 limits assumed): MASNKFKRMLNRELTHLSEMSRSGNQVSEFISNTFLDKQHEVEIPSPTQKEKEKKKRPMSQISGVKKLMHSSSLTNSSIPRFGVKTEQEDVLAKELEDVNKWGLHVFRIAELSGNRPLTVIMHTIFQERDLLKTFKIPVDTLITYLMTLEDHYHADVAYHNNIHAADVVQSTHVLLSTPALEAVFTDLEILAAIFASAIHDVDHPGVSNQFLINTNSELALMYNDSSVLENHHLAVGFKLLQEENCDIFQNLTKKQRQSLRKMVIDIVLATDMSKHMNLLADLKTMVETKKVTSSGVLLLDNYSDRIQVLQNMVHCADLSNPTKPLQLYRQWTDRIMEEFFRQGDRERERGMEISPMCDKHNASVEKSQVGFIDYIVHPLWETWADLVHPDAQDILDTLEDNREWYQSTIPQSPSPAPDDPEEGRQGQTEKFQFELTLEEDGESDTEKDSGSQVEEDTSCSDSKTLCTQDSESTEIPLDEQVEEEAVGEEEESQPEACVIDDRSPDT

c1ccc(CCNc2ncnc3c2ccn3Cc2ccccc2)cc1 [Compound 1, (7-Benzyl-7H-pyrrolo[2,3-d]pyrimidin-4-yl)-phenethyl-amine]
Effect on acute neurogenic inflammatory heat hyperalgesia (Male NMRI mice [1]): significantly decreased
Effect on RTX-induced mechanical hyperalgesia (Male NMRI mice [1]): significantly decreased
Antagonist Effect (%) (D1; [3]): −10%
Agonist Effect (%) (D1; [4]): 3.3%
Antagonist Effect (%) (D2S; [3]): −11.5%
Agonist Effect (%) (D2S; [4]): 17.2%
Antagonist Effect (%) (CB1; [3]): −1.5%
Agonist Effect (%) (CB1; [4]): 30.8%
Antagonist Effect (%) (Delta (DOP); [3]): −1.4%
Agonist Effect (%) (Delta (DOP); [4]): −0.3%
Antagonist Effect (%) (Kappa (KOP); [3]): 23.6%
Agonist Effect (%) (Kappa (KOP); [4]): −1.5%
Antagonist Effect (%) (Mu (MOP); [3]): 20.2%
Agonist Effect (%) (Mu (MOP); [4]): 5.5%
Antagonist Effect (%) (CB2; [3]): 7.7%
Agonist Effect (%) (CB2; [4]): 58.9%
Mechanonociceptive threshold of operated limb, 1 h after treatment (Male NMRI mice [2]): 8.53 ± 0.37 g
Neuropathic mechanical hyperalgesia, 1 h after treatment (Male NMRI mice [2]): 9.98% ± 3.92
Mechanonociceptive threshold of operated limb, before treatment (Male NMRI mice [2]): 6.51 ± 0.18 g
Neuropathic mechanical hyperalgesia, before treatment (Male NMRI mice [2]): 31.22% ± 2.11
Anti-hyperalgesic effect on neuropathic mechanical hyperalgesia (Male NMRI mice [2]): approximately 70%
inhibition at 1 µM (MAOA): 2.7%
inhibition at 1 µM (PDE3A): -15%
inhibition at 1 µM (PDE4D2): -0.6%
inhibition at 1 µM (COX-2): -10.4%
Inhibition of radioligand binding (%) (K+ channel hERG): 23.6%
Inhibition of radioligand binding (Ca2+ channel): 19.4%
EC50 (sst4 receptor): 37 nM
Emax (sst4 receptor): 218%

COc1ccc(CCNc2ncnc3c2c(C)c(C)n3Cc2ccccc2)cc1 [Compound 2, (7-Benzyl-5,6-dimethyl-7H-pyrrolo[2,3-d]pyrimidin-4-yl)-[2-(4-methoxy-phenyl)-ethyl]-amine]
Effect on acute neurogenic inflammatory heat hyperalgesia (Male NMRI mice [1]): not
Effect on RTX-induced mechanical hyperalgesia (Male NMRI mice [1]): not
Mechanonociceptive threshold of operated limb, 1 h after treatment (Male NMRI mice [2]): 8.04 ± 0.31 g
Neuropathic mechanical hyperalgesia, 1 h after treatment (Male NMRI mice [2]): 15.70% ± 2.84
Mechanonociceptive threshold of operated limb, before treatment (Male NMRI mice [2]): 6.53 ± 0.30 g
Neuropathic mechanical hyperalgesia, before treatment (Male NMRI mice [2]): 31.39% ± 3.39
Anti-hyperalgesic effect on neuropathic mechanical hyperalgesia (Male NMRI mice [2]): 50%
EC50 (sst4 receptor): 66 nM
Emax (sst4 receptor): 203%
